# ChEMBL document CHEMBL1145610, “N-Acetylhexosaminidase inhibitory properties of C-1 homologated GlcNAc- and GalNAc-thiazolines” (Bioorg Med Chem Lett, 2008)
# Molecular target: T1, B-N-acetylhexosaminidase (Streptomyces plicatus, UniProt O85361)
# T1 sequence (O85361 whole entry): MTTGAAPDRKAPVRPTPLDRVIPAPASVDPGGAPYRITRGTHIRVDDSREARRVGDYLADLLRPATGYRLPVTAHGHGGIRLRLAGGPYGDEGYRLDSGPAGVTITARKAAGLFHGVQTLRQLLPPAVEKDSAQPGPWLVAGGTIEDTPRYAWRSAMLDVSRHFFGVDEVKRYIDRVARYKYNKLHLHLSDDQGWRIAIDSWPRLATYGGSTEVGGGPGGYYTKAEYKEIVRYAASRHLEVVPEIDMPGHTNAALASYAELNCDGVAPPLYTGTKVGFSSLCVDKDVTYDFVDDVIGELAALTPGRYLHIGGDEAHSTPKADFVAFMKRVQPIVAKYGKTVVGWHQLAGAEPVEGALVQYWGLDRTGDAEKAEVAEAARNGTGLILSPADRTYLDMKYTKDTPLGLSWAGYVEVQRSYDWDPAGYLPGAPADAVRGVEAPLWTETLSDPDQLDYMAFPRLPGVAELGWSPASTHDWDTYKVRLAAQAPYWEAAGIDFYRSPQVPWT
# Test: Inhibition of Streptomyces plicatus N-acetyl-hexosaminidase
row,Ki,Compound
1,> 2000 µM,CC1=N[C@@H]2[C@@H](O)[C@@H](O)[C@@H](CO)O[C@]2(CN)S1
2,21 µM,"CC(=O)NC1NC[C@H](CO)[C@H](O)[C@@H]1O (single isomer, unassigned)"

# More lines, now with the values behind:
row,Compound,Ki
1,CC1=N[C@@H]2[C@@H](O)[C@@H](O)[C@@H](CO)O[C@]2(CNC(=O)OC(C)(C)C)S1,> 2000 µM
2,CC1=N[C@@H]2[C@@H](O)[C@H](O)[C@@H](CO)O[C@@H]2S1,20 µM
3,CC1=N[C@@H]2[C@@H](O)[C@@H](O)[C@@H](CO)O[C@@H]2S1,100 µM
4,CC1=N[C@@H]2[C@@H](O)[C@H](O)[C@@H](CO)O[C@]2(C)S1,200 µM
5,Cc1nc2c(s1)O[C@H](CO)[C@H](O)[C@@H]2O,1600 µM
